Laboratory results published in patent publication US20230121179A1, “SKIN BARRIER FUNCTION ENHANCER” (Shiseido Company, Ltd., priority 2020, published 2023).
“And” between values parts separate entries of the source, which are not always exact repeats. Identical values can stand only once.

Assays:
TGase1 = test: Microarray gene expression in keratinocytes after UV irradiation through wavelength conversion substance; type: cell-based; parameters: key: O represents the gene whose expression is significantly changed; X represents the gene whose expression is not changed; settings: Normal Human Epidermal Keratinocytes, UV 100 mJ/cm^2 through wavelength conversion substance solution, no direct contact, 24 h incubation
From the text: (§1) Lumate G is a zinc oxide phosphor obtained by doping ZnO with a sulfur-containing compound and then firing as described in International Patent Publication No. 2018/004006, the absorption spectrum having a peak wavelength at 365 nm and the emission spectrum having a peak wavelength at 510 nm. • (4) Magnesium titanate phosphor Lumate R by Sakai Chemical Industry Co., Ltd. was used. Lumate R is a magnesium titanate phosphor obtained by doping MgTiO3 with manganese, the absorption spectrum having a peak wavelength at 365 nm and the emission spectrum having peak wavelengths in the range of 660 to 680 nm. • The wavelength conversion substances of (1) and (2) were dissolved in water to prepare solutions at concentrations of 1% and 5%. • The wavelength conversion substances of (3) and (4) were dispersed in alcohol to prepare 5% and 10% dispersions.
(§2) Cell samples were prepared in the following manner. • 1. Human human skin keratinocytes (Normal Human Epidermal Keratinocytes, PromoCell) were used. A cell suspension (1 mL) stored with liquid nitrogen was placed in a hot water bath (37° C.) and thawed until small ice pellets remained, and then diluted with 9 mL of warm KGM medium. • 2. The diluted suspension was gently mixed and transferred to a T75 flask, and incubated overnight at 37° C. • 3. On the following day, the medium was exchanged with 10 mL of fresh medium. • 4. The medium was periodically exchanged (once every 2 - 3 days), while continuing growth of the cells. During this time, a microscope was used to observe the cells and to confirm that the cells had proliferated with the proper form. • 5. Once the cells reached approximately 80% confluence, they were subcultured. • 6. Subculturing of the cells was carried out by rinsing and aspirating once in 10 mL of warm PBS. • 7. 5 mL of warm trypsin was added to the T75 flask to cover the bottom of the flask with the trypsin solution, and the mixture was aspirated after standing for 1 minute at room temperature. • 8. The flask was set in an oven at 37° C. for 5 minutes (maximum) for keratinocytes. A microscope was used to observe the cells, confirming that they were small and elliptical. • 9. The sides of the T75 flask were then lightly tapped to free the cells. A microscope was used to observe the cells and confirm that they were freely moving. • 10. The keratinocytes were resuspended in 5 mL of warm trypsin neutralizing solution, transferred to a sterilized 50 mL Falcon tube. The flask was further rinsed with 5 mL of warm FGM and added to the Falcon tube, to ensure transfer of all of the cells. • 11.. The cells were centrifuged at […] for 5 minutes (4° C.), and the supernatant was carefully removed while avoiding disturbing the cell pellet. • 12. The keratinocytes were resuspended in KGM at a concentration of 2 × 10^4 cells/well (500 µL), and plated in collagen coated glass bottom 4-well chamber slide. • 13. The medium was replaced every two or three days, and cells were proliferated until they reached 60 to 70% confluence (differing for the type of experiment). • 14. At 24 hours before irradiation, the medium was changed to non-supplemented medium.
(§3) • 1. At least 30 minutes prior to irradiation, the power source of a solar simulator was activated to warm up the lamp. The solar simulator used was a UG11 filter. A UG11 filter is a filter that allows passage of UVB alone while cutting light of other wavelengths. […] The temperature control plate was turned on and set to 33° C. • 3. The cells prepared in Experiment 1-2 were rinsed once with warm PBS. • 4. A 0.5 mL portion of warmed Martinez solution (145 mM NaCl, 5.5 mM KC1, 1.2 mM MgCl2·6H2O, 1.2 mM NaH2PO4·2H2O, 7.5 mM HEPES, 1 mM CaCl2 and 10 mM D-glucose) was added to each well. • 5. […] The irradiation was carried out to a total radiation dose of 100 mJ/cm^2. […]

CDSN = test: as above; type: cell-based; parameters: key: O represents the gene whose expression is significantly changed; X represents the gene whose expression is not changed; settings: Normal Human Epidermal Keratinocytes, UV 100 mJ/cm^2 through wavelength conversion substance solution, no direct contact, 24 h incubation
From the text: as §1, §2, §3

LOR = test: as above; type: cell-based; parameters: key: O represents the gene whose expression is significantly changed; X represents the gene whose expression is not changed; settings: Normal Human Epidermal Keratinocytes, UV 100 mJ/cm^2 through wavelength conversion substance solution, no direct contact, 24 h incubation
From the text: as §1, §2, §3

INV = test: as above; type: cell-based; parameters: key: O represents the gene whose expression is significantly changed; X represents the gene whose expression is not changed; settings: Normal Human Epidermal Keratinocytes, UV 100 mJ/cm^2 through wavelength conversion substance solution, no direct contact, 24 h incubation
From the text: as §1, §2, §3

FLG = test: as above; type: cell-based; parameters: key: O represents the gene whose expression is significantly changed; X represents the gene whose expression is not changed; settings: Normal Human Epidermal Keratinocytes, UV 100 mJ/cm^2 through wavelength conversion substance solution, no direct contact, 24 h incubation
From the text: as §1, §2, §3

CASP14 = test: as above; type: cell-based; parameters: key: O represents the gene whose expression is significantly changed; X represents the gene whose expression is not changed; settings: Normal Human Epidermal Keratinocytes, UV 100 mJ/cm^2 through wavelength conversion substance solution, no direct contact, 24 h incubation
From the text: as §1, §2, §3

SMPD1 = test: as above; type: cell-based; parameters: key: O represents the gene whose expression is significantly changed; X represents the gene whose expression is not changed; settings: Normal Human Epidermal Keratinocytes, UV 100 mJ/cm^2 through wavelength conversion substance solution, no direct contact, 24 h incubation
From the text: as §1, §2, §3

[1] = Absorption and emission spectra of wavelength conversion substances; type: physicochemical
From the text: as §1

| Compound | TGase1 gene expression change (TGase1) | CDSN gene expression change (CDSN) | LOR gene expression change (LOR) | INV gene expression change (INV) | FLG gene expression change (FLG) | CASP14 gene expression change (CASP14) | SMPD1 gene expression change (SMPD1) | absorption spectrum peak wavelength [1] [nm] | emission spectrum peak wavelength [1] |
| --- | --- | --- | --- | --- | --- | --- | --- | --- | --- |
| C-phycocyanin [Lina Blue] | O | O | O | O | O | O | O | 350 | 640 nm and 700 nm |
| Cc1cc2nc3c(=O)[nH]c(=O)nc-3n(C[C@H](O)[C@H](O)[C@H](O)CO)c2cc1C [Vitamin B2, Riboflavin, reference compound] | O | O | X | O | O | O | O | 445 | 530 nm |
